This is an account of results in US20250213636A1, “A […] ANAESTHETIC FORMULATION AND A METHOD OF PREPARATION” (priority 2022, published 2025).

Test [1] deals with Wistar rats. Description: In vivo analgesia duration test using electrical stimulation (vocal response). Further details: species or system Wistar albino rats. The protocol: In vivo analgesia duration test was conducted using electrical stimulation testing, which was used as a means of determining analgesia in animals and humans (Grant et al., 2000). Testing for analgesia was done by a vocal response to electrical stimulation (beginning at 1 mA and increasing to a maximum of 8 mA) at the skin directly overlying the abdomen at the site of injection using a current generator. The abdominal hair of the experimental rats was shaved off, and they were screened prior to injection to determine their vocalization threshold, the current required to produce a vocalization response.
Animals will be treated in the following manner.
Polyherbal anaesthetic formulation, standard drug and 0.9% normal saline samples were injected subcutaneously into the abdomen of the experimental rats, followed by determination of analgesia at the fixed time intervals (5, 10, 20, 30, 40, 50, 60, and 70 min).

Test [2] relates to rats (tail, noxious heat stimulus). Description: Tail-flick latency (TFL) test of local anaesthetic effect. Format: in vivo. As to the method:
Local anaesthetic effects of LA-containing formulations were evaluated by tail-flick latency (TFL) test using a tail-flick measuring device (Ugo Basile, Varese, italy) (Puglia et al., 2011; Ouchi et al., 2013; Caffarel-Salvador et al., 2015). A noxious heat stimulus was applied via a focused, radiant heat light source to the dorsal surface of the tail. Tail-flick test started 5 min after the local application of different preparations, and the test was conducted every 10 min for 120 min. TFL was converted to represent the maximum possible effect (MPE) according to the following equation: […]
The baseline TFL was calculated as the mean of three different measurements taken at 10-min intervals. Baseline latencies were typically ranged from 2.5 to 3.0 s. A maximum cut-off latency of 10s was set to avoid tissue damage in analgesic animals. Results are expressed as mean±standard of eight rats per group.
A general note: Thermal pain tests record how soon the animal reacts.

The structures appear in SMILES notation. Marks after values point to notes of the source that are not given here.

With `CCN(CC)CC(=O)Nc1c(C)cccc1C` [lignocaine 2% solution, lignocaine], the “Median duration of analgesia” value in test [1] (0.05 mL subcutaneous injection into abdomen, rats) was 35 min. For the same compound, the “Percentage (%) of animals with analgesia” value in test [1] (5 minutes after 0.05 mL s.c.) was 100.00** %; in test [1] (10 minutes after 0.05 mL s.c.), 100.00** %; in test [1] (20 minutes after 0.05 mL s.c.) it was 100.00** %; in test [1] (30 minutes after 0.05 mL s.c.) it was 66.67** %; in test [1] (40 minutes after 0.05 mL s.c.), 33.33** %; in test [1] (50 minutes after 0.05 mL s.c.) it was 33.33** %. In addition, the “Percentage (%) of animals with analgesia” value in test [1] (60 minutes after 0.05 mL s.c.) and in test [1] (70 minutes after 0.05 mL s.c.) was 16.67** % in each case. For the same compound, in test [2], the “Duration of anaesthetic effect/activity after application” value is listed as “up to 30 min”.
